Measured values: patent publication US11135207B2, “Inhibitors of dihydroceramide desaturase for treating disease” (Centaurus Therapeutics, priority 2016, dated 2021)
Where “and” joins values, the source holds several entries; their conditions need not be identical. Equal entries are not always repeated. Where two headings read alike, the source gives them in different places.

Target: Des1 (Homo sapiens (Human), UniProt O15121)
Assay: Jurkat T cell measurement of conversion of dihydroceramide to ceramide
Assay type: cell-based
Conditions: for inhibition at 0.5 µM: read-out: Des1 % Inhib (0.5 μM); for IC50: read-out: Des1 IC50; for inhibition at 1 µM: 1 μM compound, read-out: Des1 % Inhib (1 μM); for inhibition at 10 µM: read-out: Des1 % Inhib (10 μM)
Procedure: Jurkat T Cell Measurement of Conversion of Dihydroceramide to Ceramide
Jurkat clone E6-1 cells were grown and then seeded at 10^6 cells/mL in a 96-well plate (400 μL in each well. The cells were administered 100 μL of cell culture media containing 50-μM NBD-C6-dihydroceramide (Des1 substrate), affording a final concentration of substrate of 10 μM. The cells were incubated with substrate at 4° C. for 30 minutes. Following the incubation at 4° C., the cell suspension was centrifuged at 1200 rpm for 3 minutes, and the cell pellet is resuspended in 400 μL of fresh media containing various concentrations of either fenretinide (known Des1 inhibitor control compound) or test article. The final concentrations of control compound and test compounds were tested in a range from 0-10 μM. The cells and compounds were incubated at 37° C. for 3 hours. Following the 3-hour incubation, the plate was centrifuged at 2500 g for 3 minutes at 4° C., followed by collection and transfer of 200 μL of the supernatant to a new 96-well plate with 300 μL of methanol an containing appropriate internal standards for liquid chromatography/tandem mass spectroscopy (LC/MS/MS) analysis (internal standard: 500 nM labetalol and 100 nM alprazolam). The samples were vortexed for 2 minutes followed by centrifugation at 3,220 g for 20 minutes. Following centrifugation, 200 μL of the supernatant was transferred to a new 96-well plate for LC-MS/MS analysis to determine the amount of NBD-C6-ceramide (Des1 product) produced. The assay was typically performed in duplicate. A reduction of at least 30% compared to vehicle control (0 μM test article) is indicative of an active compound, and a reduction of 75% compared to vehicle control is preferred.

[1] = 0.5 μM compound, Jurkat clone E6-1 cells
[2] = Jurkat clone E6-1 cells, NBD-C6-dihydroceramide substrate
[3] = 10 μM compound, Jurkat clone E6-1 cells, NBD-C6-dihydroceramide substrate

Sequence of Des1 (O15121 whole entry): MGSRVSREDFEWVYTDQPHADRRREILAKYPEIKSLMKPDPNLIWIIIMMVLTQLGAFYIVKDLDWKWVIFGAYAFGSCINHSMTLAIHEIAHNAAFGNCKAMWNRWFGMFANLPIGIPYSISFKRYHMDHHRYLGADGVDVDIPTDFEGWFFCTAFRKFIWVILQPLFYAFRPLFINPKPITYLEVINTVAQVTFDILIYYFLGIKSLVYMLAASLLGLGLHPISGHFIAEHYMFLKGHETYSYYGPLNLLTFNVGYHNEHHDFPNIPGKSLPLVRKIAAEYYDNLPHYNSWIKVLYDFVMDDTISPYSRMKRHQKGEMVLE

Structure (SMILES)	inhibition at 0.5 µM [1] [%]	IC50 [2]	also measured
O=C(Nc1ccc(O)cn1)c1ccc(-c2ccccc2)cc1 [Example 9, N-(5-hydroxy-pyridin-2-yl)-(1,1′-biphenyl)-4-carboxamide]		10 nM and 26 nM	inhibition at 1 µM (Jurkat clone E6-1 cells): 93.3%
O=C(Nc1ccc(O)cc1)c1cccc2ccccc12 [Example 13, N-(4-hydroxy-phenyl)-1-napthamide]		8200 nM	inhibition at 10 µM [3]: 38%
CCCCCCCC(=O)Nc1ccc(O)cn1 [Example 29, N-(5-hydroxy-pyridin-2-yl)-octanamide]		6 nM	inhibition at 1 µM (Jurkat clone E6-1 cells): 95.7%
O=C(Nc1ccc(O)cc1)c1ccc2ccccc2c1 [Example 2, N-(4-hydroxy-phenyl)-2-naphthamide]		840 nM	inhibition at 10 µM [3]: 78%
O=C(Nc1ccc(O)cc1)c1ccc(C2CCCCC2)cc1 [Example 15, N-(4-hydroxy-phenyl)-4-cyclohexyl-benzamide]		90 nM	inhibition at 10 µM (Jurkat): 87%
O=C(Nc1ccc(O)cn1)[C@H]1CC[C@H](c2ccc(Cl)cc2)CC1 [Example 32, (1r,4r)-4-(4-chlorophenyl)-N-(5-hydroxy-pyridin-2-yl)-cyclohexane-1-carboxamide]		1 nM	inhibition at 0.5 µM (Jurkat): 96.8%
C/C(=C\C(=O)Nc1ccc(O)cc1)c1ccccc1 [Example 3, (E)-N-(4-hydroxy-phenyl)-3-phenylbut-2-enamide]		4460 nM	inhibition at 10 µM [3]: 49%
O=C(Nc1ccc(O)cn1)c1ccc(-c2ccc(O)cc2)cc1 [Example 21, N-(5-hydroxy-pyridin-2-yl)-4′-hydroxy-biphenyl-4-carboxamide]	62.8		
O=C(Nc1ccc(O)cc1)[C@@H]1C[C@H]1c1ccccc1 (relative stereo) [Example 6, (trans)-N-(4-hydroxyphenyl)-2-phenyl-cyclopropane-carboxamide]		590 nM	inhibition at 10 µM [3]: 76%
O=C(Nc1ccc(O)cn1)c1cccc2ccccc12 [Example 19, N-(5-hydroxy-pyridin-2-yl)-1-napthamide]			inhibition at 1 µM (Jurkat clone E6-1 cells): 31%
O=C(/C=C/c1ccccc1)Nc1ccc(O)cc1 [Example 4, N-(4-hydroxy-phenyl)-cinnamide]		440 nM	inhibition at 10 µM [3]: 85%
O=C(Nc1ccc(O)cc1)c1ccc(-c2ccc(O)cc2)cc1 [Example 16, N-(4-hydroxy-phenyl)-4′-hydroxy-biphenyl-4-carboxamide]			inhibition at 10 µM [3]: 54%
O=C(Nc1ccc(O)cc1)c1ccc(-c2ccccc2)cc1 [Example 5, N-(4-hydroxy-phcnyl)-[1,1′-biphenyl]-4-carboxamide]		50 nM	inhibition at 10 µM [3]: 88%
O=C(Nc1ccc(O)cn1)C1CCCCC1 [Example 30, N-(5-hydroxy-pyridin-2-yl)-cyclohexane-carboxamide]	49.5		
O=C(Nc1ccc(O)cn1)[C@H]1CC[C@H](c2ccccc2)CC1 [Example 28, (1r,4r)-N-(5-hydroxy-pyridin-2-yl)-4-phenyl-cyclohexane-1-carboxamide]		5 nM	inhibition at 1 µM (Jurkat clone E6-1 cells): 96.2%
COc1ccc(-c2ccc(C(=O)Nc3ccc(O)cn3)cc2)cc1 [Example 22, N-(5-hydroxy-pyridin-2-yl)-4′-methoxy-biphenyl-4-carboxamide]		14 nM	inhibition at 1 µM (Jurkat clone E6-1 cells): 95.4%
N#Cc1ccc(-c2ccc(C(=O)Nc3ccc(O)cn3)cc2)cc1 [Example 23, N-(5-hydroxy-pyridin-2-yl)-4′-cyano-biphenyl-4-carboxamide]		5 nM	inhibition at 1 µM (Jurkat clone E6-1 cells): 96.3%
O=C(Nc1ccc(O)cn1)c1ccc2ccccc2c1 [Example 7, N-(5-hydroxy-pyridin-2-yl)-2-naphth-amide]		180 nM	inhibition at 1 µM (Jurkat clone E6-1 cells): 79.8%
O=C(Nc1ccc(O)cn1)c1ccc(-c2cccnc2)cc1 [Example 34, N-(5-hydroxy-pyridin-2-yl)-4-(pyridin-3-yl)benzamide]	85.6		
O=C(Nc1ccc(O)cc1)c1ccc2[nH]ncc2c1 [Example 14, N-(4-hydroxy-phenyl)-1H-indazole-5-carboxamide]		> 10000 nM	inhibition at 10 µM [3]: 14.8%
O=C(Nc1ccc(O)cn1)c1ccc(-c2ccc(Cl)cc2)cc1 [Example 24, N-(5-hydroxy-pyridin-2-yl)-4′-chloro-biphenyl-4-carboxamide]		3 nM	inhibition at 1 µM (Jurkat clone E6-1 cells): 96.1%
CC(C)CCCCCC(=O)Nc1ccc(O)cn1 [Example 31, N-(5-hydroxy-pyridin-2-yl)-7-methyloctan-amide]		1 nM	inhibition at 0.5 µM (Jurkat): 91%
CC(C)(C)c1ccc(C(=O)Nc2ccc(O)cn2)cc1 [Example 35, 4-(tert-butyl)-N-(5-hydroxy-pyridin-2-yl)-benzamide]	90	4 nM	inhibition at 1 µM (Jurkat clone E6-1 cells): 95.7%
CC(C)=CC(=O)Nc1ccc(O)cc1 [Example 11, N-(4-hydroxy-phenyl)-3-methyl-2-butenamide]		> 10000 nM	inhibition at 10 µM [3]: 20%

More lines, main results first:

inhibition at 0.5 µM [1] [%]	IC50 [2]	Structure (SMILES)	also measured
94.1	66 nM	O=C(CN1CCN(c2ccc(Cl)cc2)CC1)Nc1ccc(O)cn1 [Example 52, 2-[4-(4-chlorophenyl)piperazin-1-yl]-N-(5-hydroxypyridin-2-yl)acetamide]	
92.6	21 nM	CC(C)O[C@H]1CC[C@H](C(=O)Nc2ccc(O)cn2)CC1 [Example 40, (1r,4r)-N-(5-hydroxypyridin-2-yl)-4-iso-propoxycyclo-hexane-1-carboxamide]	
65.9		O=C(Nc1ccc(O)cn1)c1ccc(-c2c(Cl)cccc2Cl)cc1 [Example 39, 2′,6′-dichloro-N-(5-hydroxy-pyridin-2-yI)-[1,1′-biphenyl]-4-carboxamide]	
91.3	250 nM	O=C(Nc1ccc(O)cn1)C1CCCN(c2ccc(F)cc2)C1 (stereo not drawn) [Example 48, 1-(4-fluorophenyl)-N-(5-hydroxypyridin-2-yl)piperidine-3-carboxamide]	
44.8		COCCCCCC(=O)Nc1ccc(O)cn1 [Example 36, N-(5-hydroxy-pyridin-2-yl)-6-methoxy-hexanamide]	
94	23 nM	CC(c1ccc(C(=O)Nc2ccc(O)cn2)cc1)C(F)(F)F (stereo not drawn) [Example 45, N-(5-hydroxy-pyridin-2-yl)-4-(1,1,1-trifluoro-propan-2-yl)-benzamide]	
96.2		O=C(CC1CCN(c2ccc(C(F)(F)F)cc2)CC1)Nc1ccc(O)cn1 [Example 46, N-(5-hydroxypyridin-2-yl)-2-[1-[4-(trifluoromethyl)phenyl]piperidin-4-yl]acetamide]	
95.4	19 nM	O=C(Nc1ccc(O)cn1)c1ccc(-c2ccccc2Cl)cc1 [Example 38, 2′-chloro-N-(5-hydroxy-pyridin-2-yl)-[1,1′-biphenyl]-4-carboxamide]	
88	63 nM	O=C(Nc1ccc(O)cn1)c1ccc(C(F)(F)F)cc1 [Example 44, N-(5-hydroxy-pyridin-2-yl)-4-(trifluoro-methyl)-benzamide]	
85.5	130 nM	CCc1ccc(C(=O)Nc2ccc(O)cn2)cc1 [Example 42, 4-ethyl-N-(5-hydroxy-pyridin-2-yl)-benzamide]	
96.6	11 nM	O=C(Nc1ccc(O)cn1)C1CCN(c2ccc(F)cc2)CC1 [Example 54, 1-(4-fluorophenyl)-N-(5-hydroxypyridin-2-yl)piperidine-4-carboxamide]	
59.3		Cc1ccc(C(=O)Nc2ccc(O)cn2)cc1 [Example 43, N-(5-hydroxy-pyridin-2-yl)-4-methylbenz-amide]	
81.3	88 nM	CC(C)O[C@H]1CC[C@@H](C(=O)Nc2ccc(O)cn2)CC1 [Example 41, (1s,4s)-N-(5-hydroxypyridin-2-yl)-4-iso-propoxycyclo-hexane-1-carboxamide]	
	2 nM	O=C(Nc1ccc(O)cn1)C1CCN(c2ccc(C(F)(F)F)cc2)CC1 [Example 53, N-(5-hydroxypyridin-2-yl)-1-[4-(trifluoromethyl)phenyl]piperidine-4-carboxamide]	
93.7	21 nM	CC(C)OCCCCC(=O)Nc1ccc(O)cn1 [Example 37, N-(5-hydroxy-pyridin-2-yl)-5-isopropoxy-pentanamide]	
	50 nM	O=C(CN1CCN(c2ccc(C(F)(F)F)cc2)CC1)Nc1ccc(O)cn1 [Example 47, N-(5-hydroxypyridin-2-yl)-2-[4-[4-(trifluoromethyl)phenyl]piperazin-1-yl]acetamide]	
96.8	13 nM	O=C(CC1CCN(c2ccc(F)cc2)CC1)Nc1ccc(O)cn1 [Example 49, 2-[1-(4-fluorophenyl)piperidin-4-yl]-N-(5-hydroxypyridin-2-yl)acetamide]	
